Test results published in patent US20190151312A1, “HEPARAN SULFATE BIOSYNTHESIS INHIBITORS FOR THE TREATMENT OF DISEASES” (BioMarin Pharmaceutical Inc., priority 2014, published 2019).
pIC50: −log10 of the molar value. Read-outs that look alike come from different tables or passages of the source.

Experiments:
[1] = tested on: cultured primary human fibroblast from MPS patients; conditions: cited from earlier work
[2] = tested on: GM01896 cells (MPS II dermal fibroblasts); assay: Assay 1: MPS cellular assay, MPS II (heparan sulfate disaccharide biomarkers by LC-MS); assay type: cell-based, human; conditions: Assay 1 for MPS II, heparan sulfate disaccharide biomarkers (I2a4, I2a6, I2S0 and/or I2S6), read-out: IC50 Range
Method in brief: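 Heparan sulfate disaccharide biomarkers quantified by LC-MS after heparinase I/II/III digestion and isotopic aniline labelling, using GM01896 MPS II fibroblasts exposed to compound (at or below 30 μM, 4-21 days). Values given as IC50 by curve fitting; cell viability checked with alamar blue or ATP.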

[Na+].[O-][Cl+2]([O-])[O-] [sodium chlorate]
effect on synthesis of PAPs (sulfate donor) ([1]; 30-60 mM sodium chlorate): inhibits the synthesis of PAPs
sulfation of heparan sulfate produced by cells ([1]; cells grown in the presence of sodium chlorate): reduced sulfation

Cc1nn(C)c2cc(-c3cc(Nc4ccc(-c5ncno5)cc4)nc(N4CCOCC4)n3)ccc12 [[6-(1,3-dimethyl(1H-indazol-6-yl))-2-morpholin-4-ylpyrimidin-4-yl](4-(1,2,4-oxadiazol-5-yl)phenyl)amine]
pIC50 ([2]; Homo sapiens, Fibroblast): 5.30 to 6.00

CCn1ccc2ccc(Nc3cc(-c4ccc5c(C)nn(C)c5c4)nc(N4CCOCC4)n3)cc21 [[6-(1,3-dimethyl(1H-indazol-6-yl))-2-morpholin-4-ylpyrimidin-4-yl](1-ethylindol-6-yl)amine]
pIC50 ([2]; Homo sapiens, Fibroblast): 5.30 to 6.00

Cn1nc(CCN2CCOCC2)c2ccc(-c3cc(Nc4ccc(-c5ccn[nH]5)cc4)nc(N4CCOCC4)n3)cc21 [{6-[1-methyl-3-(2-morpholin-4-ylethyl)(1H-indazol-6-yl)]-2-morpholin-4-ylpyrimidin-4-yl}(4-pyrazol-5-ylphenyl)amine]
pIC50 ([2]; Homo sapiens, Fibroblast): > 6.30

Cn1c(=O)n(CCN2CCOCC2)c2ccc(-c3cc(Nc4ccc(Cl)cc4)nc(N4CCOCC4)n3)cc21 [5-{6-[(4-chlorophenyl)amino]-2-morpholin-4-ylpyrimidin-4-yl}-3-methyl-1-(2-morpholin-4-ylethyl)-3-hydrobenzimidazol-2-one]
pIC50 [2]: 6.00 to 6.30

COc1ccc(Cn2cc(-c3ccc(Nc4cc(-c5ccc6c(C)nn(C)c6c5)nc(N5CCOCC5)n4)cc3)cn2)cc1 [[6-(1,3-dimethyl(1H-indazol-6-yl))-2-morpholin-4-ylpyrimidin-4-yl](4-{1-[(4-methoxyphenyl)methyl]pyrazol-4-yl}phenyl)amine]
pIC50 ([2]; Homo sapiens, Fibroblast): 5.30 to 6.00

Cn1ccc2ccc(Nc3cc(-c4ccc5c(CCCN6C(=O)c7ccccc7C6=O)nn(C)c5c4)nc(N4CCOCC4)n3)cc21 [2-[3-(1-methyl-6-{6-[(1-methylindol-6-yl)amino]-2-morpholin-4-ylpyrimidin-4-yl}-1H-indazol-3-yl)propyl]benzo[c]azoline-1,3-dione]
pIC50 ([2]; Homo sapiens, Fibroblast): > 6.30

Cc1c(Nc2ccc(Cl)cc2)nc(N2CCOCC2)nc1-c1ccc2cnn(C)c2c1 [(4-chlorophenyl)[5-methyl-6-(1-methyl(1H-indazol-6-yl))-2-morpholin-4-ylpyrimidin-4-yl]amine]
pIC50 ([2]; Homo sapiens, Fibroblast): 5.30 to 6.00
